Assay: High-throughput single time point substrate depletion microsomal stability assay
Assay type: in vitro ADME
Conditions: Sprague-Dawley, control compounds, mean ± S.D across 600 plates, 0.5 mg/mL rat microsomal protein, 1.0 μM drug, NADPH regeneration system, pH 7.4, 37 °C, 15 min, t1/2 capped at 30 min
Procedure: Microsomal stability of the test articles was determined in a high-throughput format using the substrate depletion method. […] Sprague-Dawley was chosen because it is the most common strain used in drug discovery. Experiments were performed using a Freedom Evo 200 automated platform with a 96-channel (MCA96) head with EVOware software (version 3.2) (Tecan Inc., Männedorf, Switzerland). The system also includes an Inheco heating block and cooling block (Inheco, Munich, Germany). […] The assay incubation system consisted of 0.5 mg/mL of rat microsomal protein, 1.0 μM drug concentration, and NADPH regeneration system (containing 0.650 mM NADP + , 1.65 mM glucose 6-phosphate, 1.65 mM MgCl2, and 0.2 unit/mL G6PDH) in 100 mM phosphate buffer at pH 7.4. The incubation was carried out at 37 °C for 15 min. The reaction was quenched by adding 555 μL of acetonitrile containing 0.28 μM albendazole, an internal standard. After a 20-min centrifugation at 3000 rpm at 4 °C, 30 μL of the supernatant was transferred to an analysis plate and was diluted fivefold using 1:2 v/v acetonitrile/water. […] The raw data set was preprocessed to generate training and test data for the purpose of building and validating prediction models. […] Detailed steps involved in preprocessing the raw data set are provided in the supplementary information (Table S1).

SMILES | half-life at 1 μM (rat liver microsomes) [min] | half-life at 1 μM (microsomes) [min]
O=C1CC2(CCCC2)CC(=O)N1CCCCN1CCN(c2ncccn2)CC1 [Buspirone, buspirone] | 3.8 ± 1.1 | 
Cc1cc(=O)n(-c2ccccc2)n1C [Antipyrine, antipyrine] |  | > 30
NC(=O)N1c2ccccc2C=Cc2ccccc21 [Carbamazepine, carbamazepine] | > 30 | 

Results, then the compound that gave them:

half-life at 1 μM (rat liver microsomes) [min] | half-life at 1 μM (microsomes) [min] | SMILES
11.4 ± 2.6 |  | O=C(O)Cc1ccccc1Nc1c(Cl)cccc1Cl [Diclofenac, diclofenac]
1.4 ± 0.3 |  | CC(C)NCC(O)COc1cccc2ccccc12 (centres unmarked) [Propranolol, propranolol]

Source: article PMC7693334, “Retrospective assessment of rat liver microsomal stability at NCATS: data and QSAR models” (Scientific Reports, 2020)
